US8633203B2, “Use of pterocarpans as active anti-cellulite ingredients” (Symrise AG, priority 2009, dated 2014)

How the values were obtained:
3T3-L1-cells = experiment: adipogenesis inhibition assay (Nile Red lipid staining); format: cell-based, mouse; conditions: mean values of at least 2 independent tests
Method: 3T3-L1-cells (mouse embryonal fibroblast-like adipocyte cell line) are seeded in a 48-well plate with collagen I-coating in a concentration of 3×10^4 cells/well. After 72 h cultivation at 37° C. and 5% CO2 in DMEM (Dulbecco's Modified Eagle Medium), enriched with 10% calf serum, various concentrations of the test substances in DMEM, enriched with 10% foetal calf serum and to which are added 1 μg/ml insulin, 0.25 μM dexamethasone and 0.5 mM IBMX (3-isobutyl-1-methylxanthine), are added and incubated for a further 48 h. A media change takes place, in that DMEM, enriched with 10% foetal calf serum and with 1 μg/ml insulin added, are applied. After renewed cultivation for 48 h, a further media change takes place, in which DMEM, enriched with 10% foetal calf serum, is applied.
After a further incubation for 72 h, the intracellularly stored lipids are quantified as a measure for the differentiation of the cells by measuring the fluorescence after dyeing of the lipids with the fluorescent dye Nile Red.
The inhibition of the adipogenesis in the presence of the test substances is calculated according to the following equation: […]
The IC50 is calculated from the adipogenesis inhibition (%) in a series of dilutions of tested samples. This is the concentration at which the adipogenesis is 50% inhibited.

pancreatic lipase (PL) = target: T1, pancreatic lipase (PL) (Sus scrofa, UniProt P00591); experiment: inhibition of pancreatic lipase, MUF oleate hydrolysis; format: biochemical; conditions: MUF oleate substrate; mean values of at least 2 independent tests
T1 construct: purchased Sigma-Aldrich
T1 sequence (P00591 1-450): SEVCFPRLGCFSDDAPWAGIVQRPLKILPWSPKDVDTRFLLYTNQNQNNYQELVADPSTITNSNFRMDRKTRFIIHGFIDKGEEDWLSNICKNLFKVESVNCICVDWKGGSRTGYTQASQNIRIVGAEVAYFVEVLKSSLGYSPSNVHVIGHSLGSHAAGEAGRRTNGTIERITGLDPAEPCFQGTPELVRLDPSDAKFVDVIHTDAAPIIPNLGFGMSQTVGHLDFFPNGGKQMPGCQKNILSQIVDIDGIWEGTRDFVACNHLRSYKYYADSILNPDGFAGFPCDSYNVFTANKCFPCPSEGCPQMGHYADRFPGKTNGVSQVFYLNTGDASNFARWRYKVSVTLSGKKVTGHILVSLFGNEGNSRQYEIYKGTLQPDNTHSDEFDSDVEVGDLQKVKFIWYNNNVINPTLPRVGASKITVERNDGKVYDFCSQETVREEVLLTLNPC
Description: Lipogenesis is taken to mean the storing of triglycerides in adipocytes. The inhibition of this storage can take place by means of the inhibition of the activity of extracellular lipoprotein lipase (LPL) in that the hydrolysis of extracellular triglycerides and therefore the absorption of free fatty acids by adipocytes is reduced. As a preliminary test, the inhibition of pancreatic lipase (PL) is investigated.
PL (Sigma-Aldrich), in the presence of test substances in different use concentrations has methylumbelliferyl oleate (MUF oleate) added as a substrate. Fluorescent methylumelliferon (MUF), is produced by hydrolysis of the MUF oleate by PL and is quantified. The inhibition of the hydrolysis of the MUF oleate is a measure of the inhibition of activity of the PL.
The IC50 is calculated from the inhibition of the PL [%] in a series of dilutions of tested samples. This is the concentration, at which the activity of the PL is 50% inhibited.

lipoprotein lipase (LPL) = target: T2, lipoprotein lipase (LPL) (Mus musculus, UniProt P11152); experiment: inhibition of lipoprotein lipase from differentiated 3T3-L1 cells, MUF oleate hydrolysis; format: biochemical; conditions: LPL from 3T3-L1 cells; MUF oleate substrate; mean values of at least 2 independent tests
T2 construct: endogenous in cells; host or cells: differentiated 3T3-L1 cells (mouse); heparin-released supernatant
T2 sequence (P11152 28-474): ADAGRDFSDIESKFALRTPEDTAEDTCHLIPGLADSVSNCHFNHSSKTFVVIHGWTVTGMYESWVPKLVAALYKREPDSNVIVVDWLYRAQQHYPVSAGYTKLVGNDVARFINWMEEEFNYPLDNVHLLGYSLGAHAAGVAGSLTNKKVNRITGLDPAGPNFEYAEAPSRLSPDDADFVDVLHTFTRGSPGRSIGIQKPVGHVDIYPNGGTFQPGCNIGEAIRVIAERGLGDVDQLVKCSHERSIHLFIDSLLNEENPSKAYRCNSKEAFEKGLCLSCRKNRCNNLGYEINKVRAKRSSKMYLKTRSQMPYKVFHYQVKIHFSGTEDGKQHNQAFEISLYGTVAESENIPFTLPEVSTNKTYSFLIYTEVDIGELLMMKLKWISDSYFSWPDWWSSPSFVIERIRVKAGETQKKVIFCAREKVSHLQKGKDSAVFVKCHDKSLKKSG
Method: The results of the inhibition of the PL are used as a preliminary test and are confirmed on LPL. To obtain LPL, 3T3-L1 cells (mouse embryonal fibroblast adipocyte cell line) are seeded in a 6-well plate with collagen I-coating in a concentration of 3×10^5 cells/well. The cultivation and differentiation of the cells takes place analogously to the details in Example 2 (adipogenesis assay). During the differentiation LPL, is increasingly expressed. The LPL is present in a membrane-bound state and is released by one hour incubation with heparin solution at 2-8° C. in the supernatant of the cells.
The LPL thus obtained, in the presence of test substances in different use concentrations, has methylumbelliferyl oleate (MUF oleate) added as the substrate. Fluorescent methylumbelliferyl (MUF) is produced by hydrolysis of the MUF oleate by LPL and is quantified. The inhibition of the hydrolysis of the MUF oleate is a measure of the inhibition of the activity of the LPL and therefore the lipogenesis.
The IC50 is calculated from the inhibition of the LPL [%] in a series of dilutions of tested samples. This is the concentration at which the activity of the LPL and therefore the lipogenesis is 50% inhibited.

[1] = tested on: Primary human subcutaneous preadipocytes differentiated to adipocytes; experiment: lipolysis assay, free glycerol in supernatant; format: cell-based; conditions: for Activity with regard to lipolysis (neither inhibited nor stimulated): max. use concentration 25 ppm, about 20 hours incubation; for IC50 inhibition of the lipolysis: mean values of at least 2 independent tests
Method: Primary human subcutaneous preadipocytes (Lonza) are seeded in a 96-well microtiter plate at a concentration of 1×10^4 cells/well. Until confluence is reached, cultivation takes place at 37° C. and 5% CO2 in DMEM, enriched with 10% foetal calf serum. To induce the differentiation of preadipocytes to adipocytes there follows the addition DMEM enriched with 10% foetal calf serum, with added 10 μg/ml insulin, 1 μM dexamethasone and 1 mM IBMX (3-isobutyl-1-methylxanthine). A cultivation for 14 to 20 days follows. During this time, the medium can optionally be replaced by DMEM, enriched with 10% foetal calf serum.
Various concentrations of the test substances are applied to the cells in DMEM, with bovine serum albumen added. After about 20 hours of incubation, the quantification takes place of free glycerol in the supernatant of the cells, which is discharged therefrom after hydrolysis of triglycerides in the cells and is a measure of the lipolysis of the cells. The quantification of the free glycerol is carried out based on an enzymatic method with a free glycerol reagent.
The stimulation of the lipolysis in the presence of test substances is calculated according to the following equation: […]
The […] is calculated from the lipolysis stimulation [%] in a series of dilutions of tested samples. This is the concentration at which the lipolysis is 50% stimulated.
The inhibition of the lipolysis in the presence of test substances is calculated according to the following equation: […]
The IC50 is calculated from the lipolysis inhibition [%] in a series of dilutions of tested samples. This is the concentration at which the lipolysis is 50% inhibited.

[2] = phototoxic potential, photo-irritation factor according to OECD guideline 432; conditions: own investigations
Description: The phototoxic potential is expressed as a photo-irritation factor (PIF). […] It applies here that with a PIF of less than 2, no phototoxic potential exists while a phototoxic potential exists at a PIF of more than 5. With a PIF of between 2 and 5, there is possibly a phototoxic potential.

fat cells = experiment: own investigations on differentiation of fat cells; format: cell-based; conditions: depending on the use concentration

Molecule | IC50 inhibition of the PL (pancreatic lipase (PL)) [ppm] | IC50 inhibition of the LPL (lipoprotein lipase (LPL)) [ppm] | IC50 adipogenesis inhibition (3T3-L1-cells) [ppm] | Activity with regard to lipolysis (neither inhibited nor stimulated) [1] | other results
COc1ccc2c(c1)OC[C@H]1c3ccccc3O[C@@H]21 [3-methoxypterocarpan] | 350 | 67.0 | 50.9 | No activity (25 ppm) | –
COc1ccc(-c2coc3cc(O)c(OC)cc3c2=O)cc1O [odoratin] | – | – | – | – | phototoxic potential, in words [2]: notable phototoxic potential
COc1ccc(-c2coc3cc(O)ccc3c2=O)cc1 [Formononetin, reference compound] | – | – | – | – | IC50 inhibition of the lipolysis [1]: 53.7 ppm
cladastrin | – | – | – | – | phototoxic potential, in words [2]: notable phototoxic potential
O=c1c(-c2ccc(O)cc2)coc2cc(O)cc(O)c12 [genistein] | – | – | – | – | effect on differentiation of fat cells, in words (fat cells): inhibited or stimulated
COc1cc(O)c2c(=O)c(-c3ccc(O)c(O)c3)coc2c1 [Santal, reference compound] | – | – | – | – | IC50 inhibition of the lipolysis [1]: 1.92 ppm; effect on lipolysis (route iii), in words ([1]; own investigations): inhibition of lipolysis

Now from value to molecule, other results behind:

IC50 inhibition of the PL (pancreatic lipase (PL)) [ppm] | IC50 inhibition of the LPL (lipoprotein lipase (LPL)) [ppm] | Molecule | IC50 adipogenesis inhibition (3T3-L1-cells) [ppm] | Activity with regard to lipolysis (neither inhibited nor stimulated) [1] | other results
147 | 104.2 | Oc1ccc2c(c1)OC[C@H]1c3cc4c(cc3O[C@@H]21)OCO4 [Maackiain] | 25.5 | No activity (25 ppm) | –
425 | 788 | COc1ccc2c(c1)OC1c3ccc(O)cc3OCC21 (stereo not drawn) [Medicarpin] | 54.0 | No activity (25 ppm) | –
